Assay results from ChEMBL document CHEMBL5113375, “Development of Mcl-1 inhibitors for cancer therapy” (Eur J Med Chem, 2021).
Several values for one entry are separate records, joined by “and”; a condition that tells them apart may be missing. Equal values may be shown once. Each block holds one compound with its values, some of them ahead of it.

Key:
[1] = target: Apoptosis regulator Bcl-2/Bcl-2 homologous antagonist/killer (Homo sapiens, UniProt P10415+Q16611); assay: Inhibition of Bcl-2/Bak (unknown origin); type: protein assay
Apoptosis regulator Bcl-2/Bcl-2 homologous antagonist/killer, sequence (P10415 whole entry, one chain of several): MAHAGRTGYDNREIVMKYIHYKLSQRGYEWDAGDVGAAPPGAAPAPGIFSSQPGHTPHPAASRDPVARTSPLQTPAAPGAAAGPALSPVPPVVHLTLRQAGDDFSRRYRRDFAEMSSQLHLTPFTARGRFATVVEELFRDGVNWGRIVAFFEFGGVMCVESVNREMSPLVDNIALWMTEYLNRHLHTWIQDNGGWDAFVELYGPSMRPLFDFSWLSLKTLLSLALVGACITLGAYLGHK

BCL2A1/BAK1 = target: T1, BCL2A1/BAK1 (Homo sapiens, UniProt Q16548+Q16611); assay: Inhibition of Bfl-1/Bak (unknown origin); type: protein assay
T1 sequence (Q16611 whole entry): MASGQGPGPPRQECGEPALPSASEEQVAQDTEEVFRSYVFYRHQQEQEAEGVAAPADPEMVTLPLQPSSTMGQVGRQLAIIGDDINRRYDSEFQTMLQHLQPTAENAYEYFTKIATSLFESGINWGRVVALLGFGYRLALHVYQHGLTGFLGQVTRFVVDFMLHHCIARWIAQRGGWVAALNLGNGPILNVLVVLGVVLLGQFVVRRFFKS
T1 sequence (Q16548 whole entry): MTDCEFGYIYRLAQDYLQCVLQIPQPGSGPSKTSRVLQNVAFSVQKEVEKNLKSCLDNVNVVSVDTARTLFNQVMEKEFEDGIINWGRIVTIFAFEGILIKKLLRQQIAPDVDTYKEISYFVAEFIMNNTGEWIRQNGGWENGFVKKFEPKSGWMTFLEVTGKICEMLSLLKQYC

BCL2L2/BID = target: T2, BCL2L2/BID (Homo sapiens, UniProt P55957+Q92843); assay: Binding affinity to Bcl-W/Bid (unknown origin) by fluorescence polarization assay; type: protein assay
T2 sequence (Q92843 whole entry): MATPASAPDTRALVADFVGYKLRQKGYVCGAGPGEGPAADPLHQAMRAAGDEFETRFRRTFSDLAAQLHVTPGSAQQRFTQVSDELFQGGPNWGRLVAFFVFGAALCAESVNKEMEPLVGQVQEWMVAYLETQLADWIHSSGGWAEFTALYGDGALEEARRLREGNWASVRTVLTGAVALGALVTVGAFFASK
T2 sequence (P55957 whole entry): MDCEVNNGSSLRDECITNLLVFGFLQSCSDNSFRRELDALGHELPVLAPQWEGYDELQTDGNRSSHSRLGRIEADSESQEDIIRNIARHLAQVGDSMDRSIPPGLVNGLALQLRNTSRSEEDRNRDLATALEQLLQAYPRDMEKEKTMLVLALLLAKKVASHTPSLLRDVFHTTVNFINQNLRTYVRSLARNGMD

[2] = Inhibition of Mcl-1 (172 - 327 residues)/Noxa (unknown origin) by fluorescence polarization assay; set-up: species or system Homo sapiens
[3] = target: Bcl-xL/BH3-interacting domain death agonist (Homo sapiens, UniProt Q07817); assay: Inhibition of Bcl-xL/Bid complex (unknown origin); type: protein assay
Bcl-xL/BH3-interacting domain death agonist, sequence (Q07817 whole entry, one chain of several, the tested form may be a part): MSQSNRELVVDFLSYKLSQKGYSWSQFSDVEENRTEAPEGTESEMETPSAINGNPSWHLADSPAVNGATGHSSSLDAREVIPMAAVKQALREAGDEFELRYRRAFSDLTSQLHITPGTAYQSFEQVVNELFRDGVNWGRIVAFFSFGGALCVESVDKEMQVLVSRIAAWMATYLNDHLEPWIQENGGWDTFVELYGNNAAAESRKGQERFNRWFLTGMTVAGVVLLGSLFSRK

Bcl-xL/BAK [4] = target: T3, Bcl-xL/BAK (Homo sapiens, UniProt Q07817); assay: Inhibition of Bcl-xL/Bak (unknown origin) by fluorescence polarization assay; type: protein assay
T3 sequence (Q07817 whole entry, one chain of several): as the sequence (Q07817 whole entry, one chain of several, the tested form may be a part) above

MCL1-BAK1 complex [5] = target: T4, MCL1-BAK1 complex (Homo sapiens, UniProt Q07820); assay: Inhibition of Mcl-1/Bak (unknown origin) by fluorescence polarization assay; type: protein-complex assay
T4 sequence (Q07820 whole entry, one chain of several): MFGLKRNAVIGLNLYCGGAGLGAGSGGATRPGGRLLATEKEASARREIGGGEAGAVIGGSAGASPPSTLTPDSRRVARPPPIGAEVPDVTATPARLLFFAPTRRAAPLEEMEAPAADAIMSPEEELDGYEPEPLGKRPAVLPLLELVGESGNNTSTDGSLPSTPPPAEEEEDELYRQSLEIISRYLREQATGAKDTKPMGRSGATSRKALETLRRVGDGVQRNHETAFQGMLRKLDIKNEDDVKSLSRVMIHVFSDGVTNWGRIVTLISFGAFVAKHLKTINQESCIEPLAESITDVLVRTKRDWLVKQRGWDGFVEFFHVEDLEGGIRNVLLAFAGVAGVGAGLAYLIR

MCL1-BAK1 complex [6] = target: T4, MCL1-BAK1 complex; assay: Binding affinity to Mcl-1/Bak (unknown origin) assessed as inhibition constant by fluorescence polarization assay; type: protein-complex assay
Bcl-xL/BAK [7] = target: T3, Bcl-xL/BAK; assay: Binding affinity to Bcl-xL/Bak (unknown origin) assessed as dissociation constant by ITC method; type: protein assay
[8] = target: T5, Induced myeloid leukemia cell differentiation protein Mcl-1/Bcl-2-like protein 11 (Homo sapiens, UniProt Q07820); assay: Inhibition of Mcl-1/Bim (unknown origin) by ELISA method; type: protein assay
T5 sequence (Q07820 whole entry): as the sequence (Q07820 whole entry, one chain of several) above
T5 sequence (O43521 whole entry, further chain): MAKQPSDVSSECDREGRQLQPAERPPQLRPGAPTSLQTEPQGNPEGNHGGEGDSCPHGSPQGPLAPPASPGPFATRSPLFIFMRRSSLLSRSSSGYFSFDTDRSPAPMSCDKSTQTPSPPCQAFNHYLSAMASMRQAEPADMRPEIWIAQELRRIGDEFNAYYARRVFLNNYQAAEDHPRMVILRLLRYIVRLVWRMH

[9] = target: T6, Bcl-xL/Bcl-2-like protein 11 (Homo sapiens, UniProt Q07817); assay: Inhibition of Bcl-xL/Bim (unknown origin) by ELISA method; type: protein assay
T6 sequence (Q07817 whole entry): as the sequence (Q07817 whole entry, one chain of several, the tested form may be a part) above
T6 sequence (O43521 whole entry, further chain): as the sequence (O43521 whole entry, further chain) above

[10] = target: T7, Induced myeloid leukemia cell differentiation protein Mcl-1 (Homo sapiens, UniProt Q07820); assay: Binding affinity to Mcl-1 (unknown origin) assessed as inhibition constant by fluorescence polarization assay
T7 sequence (Q07820 whole entry): as the sequence (Q07820 whole entry, one chain of several) above

[11] = Cytotoxicity against human MOLP8 cells by caspase-3/7 activation; type: functional, cell-based; details: MOLP-8
[12] = target: T7, Induced myeloid leukemia cell differentiation protein Mcl-1; assay: Binding affinity to wildtype Mcl-1 (unknown origin) assessed as dissociation constant by SPR analysis
[13] = Binding affinity to Mcl-1 H224A (unknown origin) assessed as dissociation constant by SPR analysis; set-up: species or system Homo sapiens
[14] = target: T8, Induced myeloid leukemia cell differentiation protein Mcl-1/BH3-interacting domain death agonist (Homo sapiens, UniProt Q07820); assay: Binding affinity to Mcl-1/Bid (unknown origin) assessed as inhibition constant by fluorescence polarization assay; type: protein assay
T8 sequence (Q07820 whole entry, one chain of several, the tested form may be a part): as the sequence (Q07820 whole entry, one chain of several) above

BCL2/BID [15] = target: T9, BCL2/BID (Homo sapiens, UniProt P10415); assay: Binding affinity to Bcl-2 /Bid (unknown origin) assessed as inhibition constant by fluorescence polarization assay; type: protein assay
T9 sequence (P10415 whole entry, one chain of several): as the sequence (P10415 whole entry, one chain of several) above

BCL2/BID [16] = target: T9, BCL2/BID; assay: Binding affinity to Bcl-2/Bid (unknown origin) by fluorescence polarization assay; type: protein assay
[17] = target: T8, Induced myeloid leukemia cell differentiation protein Mcl-1/BH3-interacting domain death agonist; assay: Binding affinity to Mcl-1/Bid (unknown origin) by fluorescence polarization assay; type: protein assay
[18] = target: T6, Bcl-xL/Bcl-2-like protein 11; assay: Inhibition of GST-tagged Bcl-xL/Bim (unknown origin) incubated for 15 mins followed by Bim addition measured after 2 hrs by ELISA method; type: protein assay
[19] = target: T5, Induced myeloid leukemia cell differentiation protein Mcl-1/Bcl-2-like protein 11; assay: Inhibition of GST-tagged Mcl-1/Bim (unknown origin) incubated for 15 mins followed by Bim addition measured after 2 hrs by ELISA method; type: protein assay

Structure (SMILES): CC1=C(C2=C(C)C(=O)c3c(cc(O)c(O)c3Cc3ccccc3)C2=O)C(=O)c2cc(O)c(O)c(Cc3ccccc3)c2C1=O
IC50 [1]: 31 µM | IC50 (BCL2A1/BAK1): 25 µM

Ki (BCL2L2/BID): 37.5 µM
Structure (SMILES): O=C(O)CSc1cc(NS(=O)(=O)c2cccs2)c2ccccc2c1O

IC50 [2]: 0.5 µM
Structure (SMILES): Cc1ccc(-c2ccc(C(=O)O)c(NS(=O)(=O)c3ccc(Oc4ccccc4)cc3)c2)c2ccccc12

IC50 [2]: 0.06 µM
Structure (SMILES): Cc1ccc(-c2ccc(C(=O)O)c(NS(=O)(=O)c3ccc(OCCCN4CCOCC4)cc3)c2)c2ccccc12

IC50 [2]: 0.03 µM
Structure (SMILES): Cc1ccc(-c2ccc(C(=O)O)c(NS(=O)(=O)c3ccc(OCCn4cccn4)cc3)c2)c2ccccc12

IC50 [2]: 0.4 µM
Structure (SMILES): Cc1ccc(-c2ccc(C(=O)O)c(NS(=O)(=O)c3ccccc3)c2)c2ccccc12

Structure (SMILES): Cc1cs/c(=N\C2CCCCC2)n1/N=C/c1ccc(O)c(O)c1O
IC50 [3]: > 50 µM

IC50 (Bcl-xL/BAK [4]): 91 µM | IC50 (MCL1-BAK1 complex [5]): 110 µM | Ki (MCL1-BAK1 complex [6]): 44 µM | Kd (Bcl-xL/BAK [7]): 8.7 µM
Structure (SMILES): CC(C)C(C(=O)O)N1C(=O)/C(=C/c2ccc(Br)cc2)SC1=S (configuration not stated)

Structure (SMILES): O=C(c1ccccc1O)c1[nH]c(Cl)c(Cl)c1-n1c(C(=O)c2ccccc2O)cc(Cl)c1Cl
IC50 [8]: 12.7 µM and 12.5 µM | IC50 [9]: 19.7 µM and 12 µM

Ki [10]: 0.2 µM
Structure (SMILES): CCOC(=O)C1=C(C)N=c2s/c(=C\c3cn(Cc4ccc(-c5ccccc5)cc4)c4ccccc34)c(=O)n2C1c1ccccc1 (configuration not stated)

Structure (SMILES): CCc1nn(C)c(CC)c1-c1cccc2c(CCCOc3cccc4ccccc34)c(C(=O)O)n(CCN3CCOCC3)c12
IC50 [11]: 0.35 µM

Structure (SMILES): CC(=O)c1cc(OCc2nn(C)c(C)c2-c2cccc3c(CCCOc4cccc5ccccc45)c(C(=O)O)[nH]c23)ccc1B(O)O
IC50 [11]: 0.17 µM

Structure (SMILES): Cc1c(-c2cccc3c(CCCOc4cccc5ccccc45)c(C(=O)O)[nH]c23)c(COc2ccc(B(O)O)cc2)nn1C
IC50 [11]: > 11 µM

Structure (SMILES): Cc1c(-c2cccc3c(CCCOc4cccc5ccccc45)c(C(=O)O)[nH]c23)c(COc2ccc(B(O)O)c(C=O)c2)nn1C
IC50 [11]: 0.46 µM

Structure (SMILES): Cc1c(-c2cccc3c(CCCOc4cccc5ccccc45)c(C(=O)O)n(C)c23)c(COc2ccc(B(O)O)c(C=O)c2)nn1C
IC50 [11]: 0.075 µM

Kd [12]: 0.43 µM | Kd [13]: 0.41 µM
Structure (SMILES): N#CC1=C(C#N)c2ccc(Sc3ccc(Br)cc3)c3cccc(c23)C1=O

Ki (BCL2/BID [15]): 0.31 µM
Structure (SMILES): N#CC1=C(C#N)c2ccc(N3CCSCC3)c3cccc(c23)C1=O
Ki [14]: 0.058 µM

Ki [10]: 0.298 µM | Ki (BCL2/BID [16]): 1.2 µM
Structure (SMILES): O=C(NCCNS(=O)(=O)c1sccc1-c1ccccc1Oc1ccc(O)c(O)c1)Nc1cc(C(F)(F)F)cc(C(F)(F)F)c1
Ki [17]: 0.33 µM

Ki (MCL1-BAK1 complex [6]): 261 µM
Structure (SMILES): CC(C)COc1nc(Oc2ccccc2)ccc1C(=O)O

IC50 [18]: 1.2 µM | IC50 [19]: 1.8 µM
Structure (SMILES): CCOC(=O)CSc1ccc(C(=O)c2[nH]c(Cl)c(Cl)c2-n2cc(Cl)c(Cl)c2C(=O)c2ccc(SCC(=O)OCC)cc2O)c(O)c1

Structure (SMILES): C[n+]1cc2cc3c(cc2c2ccc4cc5c(cc4c21)OCO5)OCO3
IC50 (Bcl-xL/BAK [4]): 19 µM | IC50 (MCL1-BAK1 complex [5]): 44 µM
